Laboratory results taken from PubChem BioAssay AID328 (DTP/NCI, 2004).
“And” between values parts separate entries of the source, which are not always exact repeats. Equal entries are not always repeated. Inconclusive results and toxic doses are left out. Rule for the calls: active = survival T/C of 150% or more; inactive = T/C below 125% in these data.

System: BDF1 mice, P388 leukemia ip, median survival T/C
Assay: NCI In Vivo Anticancer Drug Screen. Data for tumor model P388 Leukemia (intraperitoneal) in B6D2F1 (BDF1) mice
Settings: endpoint: median survival time, higher = longer survival
Outline: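 Compound-treated tumour-bearing mice were compared with vehicle-treated controls. Survival was recorded, and the value is the treated-group measurement divided by the control-group measurement (T/C).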

[1] = dose: 50.0 mg/kg/injection, schedule: Q01DX001 (ip), vehicle: saline sonified
[2] = dose: 100.0 mg/kg/injection, schedule: Q01DX001 (ip), vehicle: saline sonified
[3] = dose: 50.0 mg/kg/injection, schedule: Q01DX009 (ip), vehicle: Klucel (hydroxypropylcellulose) (HPC)
[4] = dose: 100.0 mg/kg/injection, schedule: Q01DX009 (ip), vehicle: Klucel (hydroxypropylcellulose) (HPC)
[5] = dose: 100.0 mg/kg/injection, schedule: Q04DX003 (ip), vehicle: Klucel (hydroxypropylcellulose) (HPC)
[6] = dose: 200.0 mg/kg/injection, schedule: Q01DX009 (ip), vehicle: Klucel (hydroxypropylcellulose) (HPC)
[7] = dose: 200.0 mg/kg/injection, schedule: Q04DX003 (ip), vehicle: Klucel (hydroxypropylcellulose) (HPC)
[8] = dose: 50.0 mg/kg/injection, schedule: Q04DX003 (ip), vehicle: saline with Tween-80
[9] = dose: 100.0 mg/kg/injection, schedule: Q04DX003 (ip), vehicle: saline with Tween-80
[10] = dose: 100.0 mg/kg/injection, schedule: Q01DX009 (ip), vehicle: saline
[11] = dose: 25.0 mg/kg/injection, schedule: Q01DX009 (ip), vehicle: saline with Tween-80
[12] = dose: 50.0 mg/kg/injection, schedule: Q01DX009 (ip), vehicle: saline with Tween-80
[13] = dose: 200.0 mg/kg/injection, schedule: Q04DX003 (ip), vehicle: saline with Tween-80
[14] = dose: 400.0 mg/kg/injection, schedule: Q04DX003 (ip), vehicle: saline with Tween-80
[15] = dose: 100.0 mg/kg/injection, schedule: Q01DX009 (ip), vehicle: saline with Tween-80
[16] = dose: 200.0 mg/kg/injection, schedule: Q01DX009 (ip), vehicle: saline with Tween-80

Measured: T/C

CC(C)CCC[C@@H](C)[C@H]1CC[C@H]2[C@@H]3CC[C@H]4C[C@H]5N[C@H]5C[C@]4(C)[C@H]3CC[C@]12C
inactive: [1] 100 % of control | [2] 95 % of control

O=S1(=O)C=Cc2ccccc21
inactive: [3] 92 % of control | [4] 100 % of control | [5] 100 % of control | [6] 107 % of control | [7] 95 % of control

FC(F)(F)c1nc2cccc3c2n1CCC3
inactive: [8] 100 % of control | [9] 91 % of control

O=C(O)c1ccccc1Oc1ccccc1C(=O)O
inactive: [10] 100 % of control | dose: 200.0 mg/kg/injection, schedule: Q01DX009 (ip), vehicle: saline 90 % of control | dose: 400.0 mg/kg/injection, schedule: Q01DX009 (ip), vehicle: saline 104 % of control

N#CC(C#N)=c1ccc(=C(C#N)C#N)cc1
inactive: [11] 108 % of control | dose: 25.0 mg/kg/injection, schedule: Q04DX003 (ip), vehicle: saline with Tween-80 88 % of control | [12] 108 % of control | [8] 92 % of control | [9] 111 % of control

CS/C(=C\c1ccc2cc(C)ccc2[n+]1C)N1CCOCC1
inactive: dose: 1.56 mg/kg/injection, schedule: Q01DX009 (ip), vehicle: saline 112 % of control | dose: 3.12 mg/kg/injection, schedule: Q01DX009 (ip), vehicle: saline 119 % of control

CCc1ccccc1NC(=O)c1cccc(Cl)c1
inactive: [9] 95 % of control | [13] 100 % of control | [14] 104 % of control

O=C1c2cc(Cl)ccc2-c2c(NC(=O)C(Cl)Cl)cc(Cl)cc21
inactive: [9] 104 % of control | [13] 113 % of control | [14] 104 % of control

Cc1ccc(NC(=S)N2CCC(CCCC3CCN(C(=S)Nc4ccc(C)c(C)c4)CC3)CC2)cc1C
inactive: [4] 100 % of control | [5] 95 % of control | [6] 90 % of control | [7] 95 % of control | dose: 400.0 mg/kg/injection, schedule: Q01DX009 (ip), vehicle: Klucel (hydroxypropylcellulose) (HPC) 90 % of control | dose: 400.0 mg/kg/injection, schedule: Q04DX003 (ip), vehicle: Klucel (hydroxypropylcellulose) (HPC) 100 % of control

CCC(c1ccc2cc(OC)ccc2c1)C(C(=O)O)C(=O)O (centres undefined)
inactive: dose: 50.0 mg/kg/injection, schedule: Q04DX003 (ip), vehicle: Klucel (hydroxypropylcellulose) (HPC) 87 % of control

CCCN(CCC)CCCOC(=O)c1ccc(N)cc1
inactive: dose: 25.0 mg/kg/injection, schedule: Q01DX009 (ip), vehicle: saline 100 % of control | dose: 50.0 mg/kg/injection, schedule: Q01DX009 (ip), vehicle: saline 96 % of control | dose: 50.0 mg/kg/injection, schedule: Q04DX003 (ip), vehicle: saline 100 % of control | [10] 89 % of control | dose: 100.0 mg/kg/injection, schedule: Q04DX003 (ip), vehicle: saline 95 % of control

CS(=O)(=O)c1ncc2cnccn12
inactive: dose: 100.0 mg/kg/injection, schedule: Q04DX003 (ip), vehicle: water 110 % of control

NC(=S)N=Nc1c(O)[nH]c2ccccc12
inactive: [3] 119 % of control | [4] 118 % of control | [6] 115 % of control

Cc1cc(-c2ccc(Br)cc2)[n+](C)n1C
inactive: dose: 12.5 mg/kg/injection, schedule: Q01DX009 (ip), vehicle: saline with Tween-80 102 % of control | [11] 107 % of control | [12] 111 % of control

C=CC[N+](CC=C)(CC=C)CCC[N+](CC=C)(CC=C)CC=C
inactive: dose: 25.0 mg/kg/injection, schedule: Q04DX003 (ip), vehicle: water 107 % of control | dose: 50.0 mg/kg/injection, schedule: Q04DX003 (ip), vehicle: water 88 % of control

Cc1c(O)ccc2c1CCCC2
inactive: [1] 90 % of control | [2] 104 % of control | dose: 200.0 mg/kg/injection, schedule: Q01DX001 (ip), vehicle: saline sonified 100 % of control

OCc1ccccc1[S+]1OCc2ccccc21 (centres undefined)
inactive: dose: 50.0 mg/kg/injection, schedule: Q01DX009 (ip), vehicle: other 104 % of control | dose: 100.0 mg/kg/injection, schedule: Q01DX009 (ip), vehicle: other 97 % of control | dose: 200.0 mg/kg/injection, schedule: Q01DX009 (ip), vehicle: other 108 % of control

O=C(c1ccccc1)C(Cl)C(=O)c1ccccc1
inactive: dose: 50.0 mg/kg/injection, schedule: Q01DX001 (ip), vehicle: saline with Tween-80 108 % of control | dose: 65.0 mg/kg/injection, schedule: Q01DX001 (ip), vehicle: saline with Tween-80 120 % of control | dose: 150.0 mg/kg/injection, schedule: Q01DX001 (ip), vehicle: saline with Tween-80 101 % of control | dose: 200.0 mg/kg/injection, schedule: Q01DX001 (ip), vehicle: saline with Tween-80 105 % of control

CCOC(=O)N(CCN(C(=O)OCC)c1ccccc1)c1ccccc1
inactive: [12] 98 % of control | [15] 108 % of control | [16] 110 % of control

O=c1[nH]c(=O)n(C2CC(O)C(CO)O2)cc1I (centres undefined)
inactive: dose: 10.0 mg/kg/injection, schedule: Q01DX009 (ip), vehicle: saline with Tween-80 109 % of control | dose: 20.0 mg/kg/injection, schedule: Q01DX009 (ip), vehicle: saline with Tween-80 107 % of control | dose: 40.0 mg/kg/injection, schedule: Q01DX009 (ip), vehicle: saline with Tween-80 92 % of control and 109 % of control | dose: 80.0 mg/kg/injection, schedule: Q01DX009 (ip), vehicle: saline with Tween-80 106 % of control and 118 % of control | dose: 320.0 mg/kg/injection, schedule: Q01DX009 (ip), vehicle: saline with Tween-80 90 % of control

CCC1=C(c2ccc(OC)cc2)CCC(C(=O)O)C1C (centres undefined)
inactive: dose: 3.0 mg/kg/injection, schedule: Q01DX010 (sc), vehicle: steriod suspending solution 90 % of control | dose: 6.0 mg/kg/injection, schedule: Q01DX010 (sc), vehicle: steriod suspending solution 105 % of control | dose: 12.0 mg/kg/injection, schedule: Q01DX010 (sc), vehicle: steriod suspending solution 100 % of control | dose: 24.0 mg/kg/injection, schedule: Q01DX010 (sc), vehicle: steriod suspending solution 95 % of control | dose: 48.0 mg/kg/injection, schedule: Q01DX010 (sc), vehicle: steriod suspending solution 100 % of control | dose: 96.0 mg/kg/injection, schedule: Q01DX010 (sc), vehicle: steriod suspending solution 110 % of control | dose: 192.0 mg/kg/injection, schedule: Q01DX010 (sc), vehicle: steriod suspending solution 105 % of control

COc1ccc(C(OC)C2CCCCC2N2CCCCC2)cc1 (centres undefined)
inactive: dose: 0.5 mg/kg/injection, schedule: Q01DX009 (ip), vehicle: Klucel (hydroxypropylcellulose) (HPC) 90 % of control | dose: 1.0 mg/kg/injection, schedule: Q01DX009 (ip), vehicle: Klucel (hydroxypropylcellulose) (HPC) 101 % of control | dose: 2.0 mg/kg/injection, schedule: Q01DX009 (ip), vehicle: Klucel (hydroxypropylcellulose) (HPC) 98 % of control

CC[C@H](CC[C@@H](C)[C@H]1CC[C@H]2[C@@H]3CC=C4C[C@@H](OC(=O)CN5CCNCC5)CC[C@]4(C)[C@H]3CC[C@]12C)C(C)C
inactive: [3] 104 % of control | [4] 104 % of control

C[C@@H]1C[C@H]2C(=CC1=O)CC[C@@H]1[C@@H]2CC[C@]2(C)[C@@H](O)CC[C@@H]12
inactive: [15] 100 % of control | [16] 109 % of control | dose: 400.0 mg/kg/injection, schedule: Q01DX009 (ip), vehicle: saline with Tween-80 109 % of control
